Experimental data: patent US20090221522A1, “METHODS TO CORRECT GENE SET EXPRESSION PROFILES TO DRUG SENSITIVITY” (The Johns Hopkins University, priority 2008, published 2009)

What was measured:
[1] = test system: direct-patient pancreatic cancer xenografts; assay: Xenograft treatment, relative tumor growth inhibition (TGI); assay type: in vivo, mice
Text: Four- to six-week-old female athymic (nu/nu) mice were purchased from Harlan (Harlan Laboratories, Washington, D.C.). The research protocol was approved by the Johns Hopkins University Animal Use and Care Committee and animals were maintained in accordance to guidelines of the American Association of Laboratory Animal Care. Xenografts obtained from F1 mice were excised and cut into small ˜3×3×3 mm fragments and then implanted subcutaneously in a group of five to six mice for each patient, with two small fragments in each mouse (F2) as described above for the original carcinoma. Half of the rest of the carcinoma was cryopreserved in liquid nitrogen and the other half is processed for biological studies. When the carcinoma reached a size of 1,500 mm^3, they were excised, cut into ˜3×3×3 mm fragments, and transplanted to the final cohort of mice to be treated with the drugs (F3 and successive passages). Further details of the establishment of the direct-patient pancreatic cancer xenografts are described in Rubio-Viqueira B, Jimeno A, Cusatis G, et al. An In vivo Platform for Translational Drug Development in Pancreatic Cancer. Clin Cancer Res 2006 12:4652-61.
Gemcitabine (Eli Lilly, Indianapolis, Ind.) was dissolved in saline. In some embodiments, docetaxel (Sanofi-Aventis, Bridgewater, N.J.) was dissolved in 50% ethanol and 50% DMSO. In other embodiments, docetaxel (Sanofi-Aventis, Bridgewater, N.J.) was dissolved in ethanol/polysorbate 80 as a stock solution and diluted 10-fold in 5% glucose for in vivo studies. Temsirolimus (Wyeth Research, Colleville, Pa.) was dissolved in 10% ethanol, 10% pluronic, and 80% PBS. All drugs were freshly prepared and used at an injection volume of 0.2 mL/20 g body weight. Drug doses and treatment schedules were obtained from published studies.
Xenografts from this second mouse-to-mouse passage (F3) were allowed to grow to a size of ˜200 mm^3, at which time five-to-six mice were randomly assigned to control and treatment groups. […] For docetaxel treatment group, mice were treated with 20 mg/kg once a week via intraperitoneal injection. For temsirolimus treatment group, mice were treated with 20 mg/kg/day via intraperitoneal injection. Mice were treated for 21-28 days, monitored daily for signs of toxicity, and were weighed thrice a week. Tumor size was evaluated thrice a week by caliper measurements using the following formula: tumor volume=[length×width^2]/2 as reported by van de Vijver M J, He Y D, van't Veer L J, et al. A Gene-Expression Signature as a Predictor of Survival in Breast Cancer. N Engl J Med 2002 347:1999-2009.
(§1) Relative tumor growth index (TGI) was calculated as TGI=(Ti−T0/Ci−C0) if Ti>T0 (indicates tumor growth inhibition) and TGI=(Ti−T0) if Ti≦T0 (indicates tumor regression). T and C represent tumor size in the treated and control group at the last of experiment, respectively; T0 and C0 represent tumor size in the treated and control group at the start of treatment, respectively.

[2] = test system: patient-derived xenografts refractory to gemcitabine; assay: Pre-clinical second-line study in xenografts refractory to gemcitabine (TGI); assay type: in vivo, mice; details: for tumor volume change: second-line molecular mimicry choice (docetaxel)
Procedure: FIG. 11 illustrates a pre-clinical design.
FIG. 12 illustrates validation on the xenografts of FIG. 11 based on prediction according to the present invention. Four xenograft cases were used. […] A case is defined as a responder to the drug treatment if Tumor Growth Inhibition (TGI) is <20%. Negative TGI values indicate tumor regression.
as §1
Seven FDA approved anticancer agents (capecitabine, cisplatin, docetaxel, doxorubicin, etoposide, irinotecan and oxaliplatin) were used as potential second line of drugs for selection according to the present invention. The one-size-fits-all treatment was erlotinib, an FDA approved targeted therapy for advanced pancreatic cancer. See Moore M J, Goldstein D, Hamm J, et al. Erlotinib plus gemcitabine compared with gemcitabine alone in patients with advanced pancreatic cancer: a phase Ill trial of the National Cancer Institute of Canada Clinical Trials Group. J Clin Oncol 25:1960-06 2007. […] Xenograft models of these cases were randomly assigned to (i) control, (ii) erlotinib arm (one-size-fits-all second line treatment) and (iii) molecular mimicry arm (i.e., drug selection according to the present invention). For the molecular mimicry arm, the baseline gene expression profiles of these cases were connected the NCI reference panel using GS-CMAP, and one of the seven anticancer agents was assigned to the case based on comparing the GI50 among these drugs. Molecular mimicry predicted that JH033 and JH034 are sensitive to docetaxel, PANC185 is sensitive to irinotecan and PANC219 is sensitive to doxorubicin. These cases were treated with the molecular mimicry choice of drugs and tumor volumes were measured. At the end of the experiment, xenografts treated with molecular mimicry choice of drugs had higher tumor growth inhibition than their litter mates treated with erlotinib (FIGS. 12 and 13).

Compound: CC(=O)O[C@@]12CO[C@@H]1C[C@H](O)[C@@]1(C)C(=O)[C@H](O)C3=C(C)[C@@H](OC(=O)[C@H](O)[C@@H](NC(=O)OC(C)(C)C)c4ccccc4)C[C@@](O)([C@@H](OC(=O)c4ccccc4)[C@H]21)C3(C)C [docetaxel]
- xenograft response (sensitive/resistant) ([1]; xenograft PANC185, docetaxel): resistant
- TGI ([1]; xenograft PANC185, docetaxel for 21 days): 83%
- xenograft response (sensitive/resistant) ([1]; xenograft PANC215, docetaxel): resistant
- TGI ([1]; xenograft PANC215, docetaxel for 21 days): 41%
- xenograft response (sensitive/resistant) ([1]; xenograft PANC265, docetaxel): sensitive
- TGI ([1]; xenograft PANC265, docetaxel for 21 days): −79%
- tumor volume change ([2]; xenograft JH033): Regression in tumor volume
- tumor volume change ([2]; xenograft JH034): Regression in tumor volume

Compound: C#Cc1cccc(Nc2ncnc3cc(OCCOC)c(OCCOC)cc23)c1 [erlotinib]
- median TGI ([2]; four xenograft cases (PANC185, PANC219, JH033, JH034)): 33%
- mean TGI % ([2]; four xenograft cases, second-line arm): 30%
- responders (TGI <20%) ([2]; of four xenograft cases, second-line treatment): only one xenograft responded

Compound: CO[C@H]1C[C@@H]2CC[C@@H](C)[C@@](O)(O2)C(=O)C(=O)N2CCCC[C@H]2C(=O)O[C@H]([C@H](C)C[C@@H]2CC[C@@H](OC(=O)C(C)(CO)CO)[C@H](OC)C2)CC(=O)[C@H](C)/C=C(\C)[C@@H](O)[C@@H](OC)C(=O)[C@H](C)C[C@H](C)/C=C/C=C/C=C/1C [temsirolimus]
- TGI ([1]; xenograft JH024, after temsirolimus treatment): 94%
- xenograft response (sensitive/resistant) ([1]; xenograft JH024, temsirolimus): resistant
- TGI ([1]; xenograft PANC219, after temsirolimus treatment): −23%
- xenograft response (sensitive/resistant) ([1]; xenograft PANC219, temsirolimus): sensitive
